The text below walks through data of BindingDB's records for patent WO2022093820 (GENENTECH, INC., 2022).

The test has as its target Phosphatidylinositol 3-kinase catalytic subunit type 3 (Homo sapiens, UniProt Q8NEB9). The experiment in a line: VPS34 ADP-Glo kinase assay. The procedure:
Experimental compound in DMSO was dispensed to a 384-well microplate via acoustic dispenser at 50 nl per well. […] Assay buffer conditions were as follows: 50 mM HEPES, pH 7.5, 3 mM MnCl2, 0.01% BSA, 0.01% Brij 35, 1 mM TCEP. The 5 µl reaction was incubated for 90 minutes at room temperature, and then quenched with equal volume of ADP-Glo Reagent (5 µl; Promega). Quenched reaction was incubated for 60 min, followed by addition of an equal volume of Kinase Detection Reagent (10 µl; Promega). Luminescence signal was detected on an Envision (Perkin Elmer).

Sequence of Phosphatidylinositol 3-kinase catalytic subunit type 3 (Q8NEB9 whole entry): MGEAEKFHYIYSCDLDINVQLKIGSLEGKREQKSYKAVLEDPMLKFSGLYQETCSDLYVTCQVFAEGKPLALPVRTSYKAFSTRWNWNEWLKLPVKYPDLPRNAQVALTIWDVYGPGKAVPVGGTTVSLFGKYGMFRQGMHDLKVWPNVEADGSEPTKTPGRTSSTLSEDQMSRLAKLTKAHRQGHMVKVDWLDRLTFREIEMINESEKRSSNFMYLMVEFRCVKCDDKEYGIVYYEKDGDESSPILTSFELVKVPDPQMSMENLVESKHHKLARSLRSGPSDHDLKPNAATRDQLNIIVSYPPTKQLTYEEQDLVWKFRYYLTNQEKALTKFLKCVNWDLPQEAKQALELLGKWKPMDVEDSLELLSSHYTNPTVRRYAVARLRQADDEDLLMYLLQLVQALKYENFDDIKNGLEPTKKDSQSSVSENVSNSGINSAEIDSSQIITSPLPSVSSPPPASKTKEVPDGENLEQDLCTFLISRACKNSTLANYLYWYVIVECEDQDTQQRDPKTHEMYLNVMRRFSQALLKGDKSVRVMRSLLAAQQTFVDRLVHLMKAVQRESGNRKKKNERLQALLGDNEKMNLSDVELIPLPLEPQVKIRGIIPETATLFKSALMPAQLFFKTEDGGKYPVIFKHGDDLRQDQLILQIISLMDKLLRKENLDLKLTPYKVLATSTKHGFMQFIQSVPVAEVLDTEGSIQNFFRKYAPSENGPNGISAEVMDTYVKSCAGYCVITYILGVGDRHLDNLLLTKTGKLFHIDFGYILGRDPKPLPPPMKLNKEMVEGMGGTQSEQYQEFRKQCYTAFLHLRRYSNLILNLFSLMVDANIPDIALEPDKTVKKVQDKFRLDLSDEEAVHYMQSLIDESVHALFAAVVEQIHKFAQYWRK

Compound `C[C@@H]1COCCN1c1cc2n(n1)[C@H](C1(C)CC1)CNC2=O` [WO2022093820, Compound 11] showed a 50% inhibitory concentration (IC50) of 56 nM.
As for `C[C@@H]1COCCN1c1cc2n(n1)[C@@H](C1(C)CC1)CNC2=O` [WO2022093820, Compound 12], the figure is 3350 nM.
The value for `C[C@@H]1COCCN1c1cc2n(n1)[C@H](C(F)(F)C(F)(F)F)CNC2=O` [WO2022093820, Compound 15] was 52 nM.
`C[C@@H]1COCCN1c1cc2n(n1)[C@@H](C(F)(F)C(F)(F)F)CNC2=O` [WO2022093820, Compound 16]: the IC50 was 50000 nM.
`C[C@@H]1COCCN1c1cc2n(n1)[C@](C)(C1CC1)CNC2=O` [WO2022093820, Compound 23] displayed a 50% inhibitory concentration (IC50) of 41 nM.
The value for `C[C@@H]1COCCN1c1cc2n(n1)[C@@](C)(C1CC1)CNC2=O` [WO2022093820, Compound 24] was 1340 nM.
As for `CC(C)[C@]1(C)CNC(=O)c2cc(N3CCOC[C@H]3C)nn21` [WO2022093820, Compound 25], the figure is 90 nM.
As for `CC(C)[C@@]1(C)CNC(=O)c2cc(N3CCOC[C@H]3C)nn21` [WO2022093820, Compound 26], the figure is 2170 nM; as for `CC[C@@]1(C2CC2)CNC(=O)c2cc(N3CCOC[C@H]3C)nn21` [WO2022093820, Compound 27], 32 nM.
Turning to `CC[C@]1(C2CC2)CNC(=O)c2cc(N3CCOC[C@H]3C)nn21` [WO2022093820, Compound 28], the IC50 came out at 1300 nM.
As for `C[C@@H]1COCCN1c1cc2n(n1)[C@](C)(C1CC1)C1(CC1)NC2=O` [WO2022093820, Compound 29], the figure is 27 nM; as for `C[C@@H]1COCCN1c1cc2n(n1)[C@@](C)(C1CC1)C1(CC1)NC2=O` [WO2022093820, Compound 30], 1750 nM; as for `CC(C)[C@H]1n2nc(N3CCOC[C@H]3C)cc2C(=O)NC12CC2` [WO2022093820, Compound 33], 24 nM.
For the compound `CC(C)[C@@H]1n2nc(N3CCOC[C@H]3C)cc2C(=O)NC12CC2` [WO2022093820, Compound 34], the half-maximal inhibitory concentration (IC50) was 21000 nM.
The value for `C[C@@H]1COCCN1c1cc2n(n1)[C@@H]1CCC(C)(C)[C@@H]1NC2=O` [WO2022093820, Compound 41] was 51 nM.
Regarding `C[C@@H]1COCCN1c1cc2n(n1)[C@](C)(C1CCC1)CNC2=O` [WO2022093820, Compound 44], 4000 nM corresponded to half-maximal inhibition (IC50).
Turning to `C[C@@H]1COCCN1c1cc2n(n1)[C@@](C)(C1CCC1)CNC2=O` [WO2022093820, Compound 45], the IC50 amounted to 260 nM.
With `CC[C@@H]1CNC(=O)c2cc(N3CCOC[C@H]3C)nn21` [WO2022093820, Compound 46], half-maximal inhibition (IC50) required 12800 nM.
As for `CC[C@H]1CNC(=O)c2cc(N3CCOC[C@H]3C)nn21` [WO2022093820, Compound 47], the figure is 747 nM; as for `C[C@@H]1COCCN1c1cc2n(n1)[C@H](C1(c3ccccc3)CC1)CNC2=O` [WO2022093820, Compound 48], 100 nM; as for `C[C@@H]1COCCN1c1cc2n(n1)[C@@H](C1(c3ccccc3)CC1)CNC2=O` [WO2022093820, Compound 49], 35000 nM.
The value for `CC(C)C1(CO)CNC(=O)c2cc(N3CCOC[C@H]3C)nn21` (stereo partly specified) [WO2022093820, Compound 50] was 847 nM.
The value for `C[C@@H]1COCCN1c1cc2n(n1)C[C@H](CC(F)(F)F)NC2=O` [WO2022093820, Compound 51] was 682 nM.
With `C[C@@H]1COCCN1c1cc2n(n1)C[C@@H](CC(F)(F)F)NC2=O` [WO2022093820, Compound 52], the half-inhibitory concentration (IC50) worked out at 24700 nM.
The value for `COC[C@@]1(C(C)C)CNC(=O)c2cc(N3CCOC[C@H]3C)nn21` [WO2022093820, Compound 53] was 36200 nM; that for `COC[C@]1(C(C)C)CNC(=O)c2cc(N3CCOC[C@H]3C)nn21` [WO2022093820, Compound 54] was 563 nM; that for `C[C@H](c1ccccc1)C1CNC(=O)c2cc(N3CCOC[C@H]3C)nn21` (stereo partly specified) [WO2022093820, Compound 55] was 50000 nM.
Compound `C[C@@H]1COCCN1c1cc2n(n1)C([C@@H](C)c1ccccc1)CNC2=O` (stereo partly specified) [WO2022093820, Compound 56] had a half-inhibitory concentration (IC50) of 119 nM.
The value for `C[C@H](c1ccccc1)[C@@H]1CNC(=O)c2cc(N3CCOC[C@H]3C)nn21` [WO2022093820, Compound 57] was 50000 nM.
As for `C[C@@H]1COCCN1c1cc2n(n1)[C@H]([C@@H](C)c1ccccc1)CNC2=O` [WO2022093820, Compound 58], the IC50 was 388 nM.
As for `C[C@@H]1COCCN1c1cc2n(n1)[C@H](CC(F)(F)F)CNC2=O` [WO2022093820, Compound 59], the figure is 36000 nM.
In the case of `C[C@@H]1COCCN1c1cc2n(n1)[C@@H](CC(F)(F)F)CNC2=O` [WO2022093820, Compound 60], the 50% inhibitory concentration (IC50) is 429 nM.
The compound `CC(C)C[C@@H]1CNC(=O)c2cc(N3CCOC[C@H]3C)nn21` [WO2022093820, Compound 61] displayed a concentration for half-maximal inhibition (IC50) of 12800 nM.
As for `CC(C)C[C@H]1CNC(=O)c2cc(N3CCOC[C@H]3C)nn21` [WO2022093820, Compound 62], the figure is 739 nM; as for `CC[C@@H](C)C[C@H]1CNC(=O)c2cc(N3CCOC[C@H]3C)nn21` [WO2022093820, Compound 64], 33600 nM; as for `CC[C@H](C)C[C@@H]1CNC(=O)c2cc(N3CCOC[C@H]3C)nn21` [WO2022093820, Compound 65], 109 nM.
`C[C@H](CO)[C@@H]1CNC(=O)c2cc(N3CCOC[C@H]3C)nn21` [WO2022093820, Compound 67] displayed an IC50 of 32400 nM.
The compound `C[C@@H]1COCCN1c1cc2n(n1)[C@H]([C@@H](C)CO)CNC2=O` [WO2022093820, Compound 68] yielded an IC50 of 27300 nM.
Regarding `C[C@@H]1COCCN1c1cc2n(n1)C([C@@H](C)CO)CNC2=O` (stereo partly specified) [WO2022093820, Compound 69], it took 784 nM to reach half-maximal inhibition (IC50).
As for `C[C@H](CO)C1CNC(=O)c2cc(N3CCOC[C@H]3C)nn21` (stereo partly specified) [WO2022093820, Compound 70], the figure is 532 nM; as for `C[C@@H]1COCCN1c1cc2n(n1)C(C)(C)CNC2=O` [WO2022093820, Compound 71], 919 nM.
